Source: patent publication US9533977B2, “Oxazolidinone derivative as CETP inhibitor, its preparation method, and pharmaceutical composition comprising the same” (DONG-A ST CO., LTD., priority 2013, dated 2017)

target: T1, CETP (Homo sapiens, UniProt P11597); experiment: Inhibitory activity against CETP in human plasma (Roar CETP activity kit, fluorescence); assay type: biochemical; conditions: plasma from healthy men diluted 1:10 in assay buffer, 37° C., 3 hrs, fluorescence 465/535 nm; read-out: IC50, Inhibition of CETP Activity in Human Plasma
T1 construct: from tissue; host or cells: human plasma from healthy men
T1 sequence (P11597 18-493): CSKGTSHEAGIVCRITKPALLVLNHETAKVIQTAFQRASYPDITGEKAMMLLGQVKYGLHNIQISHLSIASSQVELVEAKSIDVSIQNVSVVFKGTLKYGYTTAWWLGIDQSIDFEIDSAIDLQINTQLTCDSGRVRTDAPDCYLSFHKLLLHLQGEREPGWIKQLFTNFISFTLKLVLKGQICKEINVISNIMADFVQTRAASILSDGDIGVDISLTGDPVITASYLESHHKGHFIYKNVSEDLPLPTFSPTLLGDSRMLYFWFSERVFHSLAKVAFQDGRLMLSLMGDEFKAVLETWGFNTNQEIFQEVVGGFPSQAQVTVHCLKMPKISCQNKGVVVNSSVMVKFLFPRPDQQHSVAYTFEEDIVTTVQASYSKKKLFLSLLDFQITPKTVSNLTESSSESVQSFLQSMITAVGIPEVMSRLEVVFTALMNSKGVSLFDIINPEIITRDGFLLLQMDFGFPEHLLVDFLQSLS
Experimental: A CETP activity kit (#RB-CETP) was purchased from Roar […], Inc. A donor and an acceptor (each, 4 ul), a 10× assay buffer (177 ul), and each of dilutions of test compounds in dimethylsulfoxide (DMSO, Sigma-Aldrich) (0.01 nM˜10000 nM) were added to each well of black round-bottom 96-well plates (Corning #3792). Plasma samples from healthy men were diluted in the assay buffer (1:10=plasma:assay buffer), and added to each well. The plates were sealed with a sealing film (Sigma-Aldrich, #Z369659), and incubated in a 37° C. incubator microplate shaker (#SLST-3, Seolin Bio) for 3 hrs. After removal of the sealing film, fluorescence was read on Spectra Max Gemini EM (Molecular devices) with an excitation wavelength of 465 nm and an emission wavelength of 535 nm. Measurements were calculated according to the following formula. Calculated value=(Fluorescence Intensity with both compound and plasma−Fluorescence Intensity with compound but without plasma)/(Fluorescence Intensity with plasma but without compound−Fluorescence Intensity with neither compound nor plasma)
From the calculated value, a sigmoidal curve (y=start+(end-start)x^n/k^n+x^n) was drawn using Origin Software (OriginLab Corporation, ver. 8.0724) to obtain IC50 values.

IC50 [nM] | Compound
43 | C[C@H]1C(c2cc(C(F)(F)F)cc(C(F)(F)F)c2)OC(=O)N1Cc1nc(N2CCCC2)cnc1N(C)C[C@H]1CC[C@H](CC(=O)O)CC1 (stereo partly drawn) [Example 127]
4.98 | CCN(CC1CCC(CCO)CC1)c1ncc(N2CCCC2)nc1CN1C(=O)OC(c2cc(C(F)(F)F)cc(C(F)(F)F)c2)C1C [Example 131, trans-4-({[3-({(4S,5S)-5-[3,5-bis(trifluoromethyl)phenyl]-4-methyl-2-oxazolidin-3-yl}methyl)-5-(pyrrolidin-4-yl)pyrazin-2-yl]{[N-(ethyl)aminomethyl]cyclohexyl)}propanol]
24.3 | CCN(c1ncc(-c2ccc(C)s2)cc1CN1C(=O)O[C@H](c2cc(C(F)(F)F)cc(C(F)(F)F)c2)[C@@H]1C)C1CCCCC1 [Example 79, (4S,5R)-5-[3,5-bis(trifluoromethyl)phenyl]-4-methyl-3-({[2-(ethyl)(cyclohexyl)amino]-5-(2-methyl-thiophen-5-yl)pyridin-3-yl}methyl)-oxazolidin-2-one]
22 | CCN(c1ncc(-c2cccs2)cc1CN1C(=O)O[C@H](c2cc(C(F)(F)F)cc(C(F)(F)F)c2)[C@@H]1C)C1CCCCC1 [Example 80, (4S,5R)-5-[3,5-bis(trifluoromethyl)phenyl]-4-methyl-3-({[2-(ethyl)(cyclohexyl)amino]-5-(thiophen-2-yl)pyridin-3-yl}methyl)-oxazolidin-2-one]
29.7 | (4S,5R)-5-[3,5-bis(trifluoromethyl)phenyl]-4-methyl-3-({[2-(ethyl)(cyclohexyl)amino]-5-(2,4-dimethyl-thiazol-5-yl)pyridin-3-yl}methyl)-oxazolidin-2-one [Example 84]
7.19 | CCCN(C[C@H]1CC[C@H](CC(=O)O)CC1)c1ncc(-c2c(C)noc2C)nc1CN1C(=O)OC(c2cc(C(F)(F)F)cc(C(F)(F)F)c2)[C@@H]1C (stereo partly drawn) [Example 123]
17.7 | CCN(c1ncc(-c2sccc2C)cc1CN1C(=O)O[C@H](c2cc(C(F)(F)F)cc(C(F)(F)F)c2)[C@@H]1C)C1CCCCC1 [Example 78, (4S,5R)-5-[3,5-bis(trifluoromethyl)phenyl]-4-methyl-3-({[2-(ethyl)(cyclohexyl)amino]-5-(3-methyl-thiophen-2-yl)pyridin-3-yl}methyl)-oxazolidin-2-one]
2.61 | Cc1noc(C)c1-c1cnc(N2CCCCC2)c(CN2C(=O)O[C@@H](c3cc(C(F)(F)F)cc(C(F)(F)F)c3)[C@@H]2C)n1 [Example 98, (4S,5S)-5-[3,5-bis(trifluoromethyl)phenyl]-3-{[6-(3,5-dimethylisoxazol-4-yl)-3-(piperidin-1-yl)pyrazin-2-yl)methyl}-4-methyloxazolidin-2-one]
46.3 | CCN(c1ncc(-c2nnnn2C)cc1CN1C(=O)O[C@H](c2cc(C(F)(F)F)cc(C(F)(F)F)c2)[C@@H]1C)C1CCCCC1 [Example 66, (4S,5R)-5-[3,5-bis(trifluoromethyl)phenyl]-4-methyl-3-({[2-(ethyl)(cyclohexyl)amino]-5-(1-methyl-1H-tetrazol-5-yl)pyridin-3-yl}methyl)-oxazolidin-2-one]
11.1 | CCN(c1ncc(OS(C)(=O)=O)cc1CN1C(=O)O[C@H](c2cc(C(F)(F)F)cc(C(F)(F)F)c2)[C@@H]1C)C1CCCCC1 [Example 55, 5-{[(4S,5R)-5-[3,5-bis(trifluoromethyl)phenyl]-4-methyl-2-oxo-oxazolidin-3-yl]methyl}-6-[(cyclohexyl)(ethyl)amino]-pyridin-3-yl methanesulfonate]
3.8 | (4S,5R)-5-[3,5-bis(trifluoromethyl)phenyl]-4-methyl-3-({[2-(methyl)(cyclohexyl)amino]-5-(3,5-dimethyl-isoxazol-4-yl)pyrazin-3-yl}methyl)-oxazolidin-2-one [Example 95]
19.8 | CCN(c1ncc(Br)cc1CN1C(=O)O[C@H](c2cc(C(F)(F)F)cc(C(F)(F)F)c2)[C@@H]1C)C1CCOCC1 [Example 40, (4S,5R)-5-[3,5-bis(trifluoromethyl)phenyl]-4-methyl-3-({[2-(ethyl)(tetrahydro-2H-pyran-4-yl)amino]-5-bromopyridin-3-yl}methyl)-oxazolidin-2-one]
